From US6861448B2, “NAD synthetase inhibitors and uses thereof” (priority 1998, dated 2005)
Values after ≈ are worked out from the molar mass of the structure shown. Values joined by “and” are separate entries in the source; they are usually repeats but may differ in a detail not shown here. Equal entries are not always repeated. Structures can show the parent of a compound that is named as a salt. Where two headings read alike, the source gives them in different places.

Columns and labels:
E. coli = experiment: MIC test (NCCLS broth dilution), growth inhibition; type: cell-based; conditions: for MIC: Escherichia coli
Method: (§1) Antimicrobial Testing (P. aeruginosa, E. coli, B. subtilis, S. aureus, S. aureus (MCR), A. niger and M. flavescens.)
(§2) The test compounds were solubilized, diluted, and pipetted in duplicate into 10 mL sterile culture tubes and dried under vacuum.
(§3) Challenge organisms, specified were grown overnight at 37° C. in the appropriate medium (i.e., Mueller-Hinton Broth). These pure broth cultures were diluted 1:1,000 and 2.0 mL were added to the test compound tubes.
(§4) Appropriate media controls, challenge organism viability controls, and antibiotic control dilutions (i.e., ampicillin and nystatin), were prepared in the same manner as the test compounds and run against the challenge organisms.

P aeruginosa = experiment: MIC test (NCCLS broth dilution), growth inhibition; type: cell-based; conditions: for MIC: Pseudomonas aeruginosa, read-out: Potency to inhibit growth, P aeruginosa (MIC)
Method: as §1, §2, §3, §4

S. aureus (MCR) = experiment: microbe, parasite or virus in culture; type: cell-based; conditions: for MIC: Staphylococcus aureus, read-out: Minimal Inhibitory Concentration (MIC), S. aureus (MCR), multiple values = two or more tests; for Minimal Inhibitory Concentration (MIC), S. aureus (MCR): multiple values = two or more tests
[1] = test system: Bacillus anthracis Sterne 34F2; experiment: microbe, parasite or virus in culture; type: cell-based; conditions: Bacillus anthracis
M. flavescens = experiment: microbe, parasite or virus in culture; type: cell-based; conditions: for MIC: Mycolicibacterium flavescens, read-out: Minimal Inhibitory Concentration (MIC), M. flavescens
C. albicans = experiment: MIC test, fungal growth inhibition; type: cell-based; conditions: in vitro; for MIC: Candida albicans, read-out: Potency to inhibit growth, C. albicans (MIC)
Method: (§5) The MIC test procedures conformed to the present protocol from the National Committee for Clinical Laboratory Standards (NCCLS), and were designed to provide basic antimicrobial data on compounds based on the MIC of the active component.
as §2, §3, §4

S. aureus = experiment: microbe, parasite or virus in culture; type: cell-based; conditions: multiple values = two or more tests; for MIC: Staphylococcus aureus, read-out: Minimal Inhibitory Concentration (MIC), S. aureus
NAD synthetase = NAD synthetase (Bacillus subtilis, UniProt P08164); experiment: NAD synthetase coupled enzyme assay; type: biochemical
Sequence of NAD synthetase (P08164 whole entry): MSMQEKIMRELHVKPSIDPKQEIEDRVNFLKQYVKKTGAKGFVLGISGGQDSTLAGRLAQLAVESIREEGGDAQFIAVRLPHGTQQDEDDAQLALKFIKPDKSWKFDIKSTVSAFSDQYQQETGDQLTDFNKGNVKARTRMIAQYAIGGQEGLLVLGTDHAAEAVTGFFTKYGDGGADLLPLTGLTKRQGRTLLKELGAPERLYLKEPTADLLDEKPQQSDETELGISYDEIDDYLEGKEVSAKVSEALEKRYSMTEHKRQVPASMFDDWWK
Text: This Example illustrates the NAD synthetase enzyme inhibiting activity of some compounds of the present invention. [drawing 48] The coupled assay—production of NAD was monitored through conversion to NADH by alcohol dehydrogenase. [NADH] was monitored by 2 parallel methods: the change in absorbance at 340 nm, and fluorescence at 460 nm (excitation 320 nm). […] Controls were included for determining inhibitor background, precipitation, and ADH inhibition.

A. niger = experiment: MIC test, fungal growth inhibition; type: cell-based; conditions: for MIC: Aspergillus niger, read-out: Potency to inhibit growth, A. niger (MIC)
Method: as §1, §5, §2, §3, §4

[2] = test system: rabbit primary renal cells (RPRC); experiment: Cytotoxicity in rabbit primary renal cells (annexin V / PI flow cytometry); type: cell-based; conditions: 24 hr, mean ± SEM; for % CELLULAR NECROSIS (RPRC): at 300 μM; for % APOPTOSIS (RPRC): at peak effect (30 μM)
Method: Cytotoxicity in Rabbit Primary Renal Cells
Isolation of Proximal Tubules and Culture Conditions
Rabbit renal proximal tubules were isolated using the iron oxide perfusion method and grown in 35-mm tissue culture dishes under improved conditions. The cell culture medium was a 1:1 mixture of DMEM/Ham's F-12 (without D-glucose, phenol red, or sodium pyruvate) supplemented with 15 mM HEPES buffer, 2.5 mM L-gluatmine, 1 μM pyridoxine HCL, 15 mM sodium bicarbonate, and 6 mM lactate. Hydrocortisone (50 nM), selenium (5 ng/mL), human transferrin (5 μg/mL), bovine insulin (10 nM) and L-ascorbic acid-2-phosphate (50 μM) were added to fresh culture medium immediately prior to daily media change.
All numbered compounds were diluted in methanol and the final concentration of methanol in RPRC was less then 0.1% (v/v).
Measurement of RPRC Death
Cell death was monitored in RPRC by assessment of both annexin V and PI staining using flow cytometry. Briefly, RPRC were exposed to the indicated concentrations of compounds for 24 hr. Media was removed and RPRC washed twice with phosphate-buffered saline (PBS) and incubated in a binding buffer (10 mM HEPES, 140 mM NaCL, 5 mM KCL, 1 mM MgCl2, 1.8 mM CaCl2, pH=7.4) containing annexin V-FITC (1 μmol) and PI (25 μg/mL). After a 10 min incubation, RPRC were washed three times in the binding buffer and were released from the monolayers by gentle scrapping with a rubber policeman. Annexin V and PI staining were measured using a BectonDickson FacsCalibur flow cytometer (San Jose, Calif.). An equal number of cells (10,000) were counted for sample and apoptotic cells were defined as those that stained positive for annexin V-FITC only. RPRC undergoing necrotic cell death stained for PI only.
RPRC isolated from one rabbit represented one experiment (n=1). Data were analyzed and are reported as means±standard error of the mean of at least 3 separate experiments.

[3] = Solubilization of test articles in methanol:water; type: physicochemical; conditions: 50:50 methanol:water (v/v)
Method: (§6) Prior to conducting the assay, cell number, serum concentration, and medium conditions were optimized. Then using the assay conditions as described below, cells were seeded on day 1 and allowed to adhere for at least 1 hour. […] The initial solubilization of the test articles was in 50:50 methanol:water (v/v). […] On day 1, compounds 1439 and 1364 required sonication before solubility was reached). The cells plus compound were incubated overnight at 37° C., under a 5% CO2/[…] atmosphere. On day 2, the cells in the positive control wells were lysed with 0.9% Triton X-100 for 45 minutes to establish maximum levels of LDH release. The plates were centrifuged at 250× g for 5 minutes, the supernatants transferred to a new assay plate, and the LDH was measured. The assay plates were read at OD 490 nm.

B. subtilis = experiment: microbe, parasite or virus in culture; type: cell-based; conditions: multiple values = two or more tests
Murine 3T3 cells = experiment: Cytotoxicity in murine 3T3 cells (LDH release); type: cell-based; conditions: at 100 μM, 20 hrs
Method: as §6

[4] = in vitro, read-out: Potency to inhibit growth, E. coli (MIC)
[5] = STERNE34F2, read-out: approximate MIC, B. anthracis (first value)
[6] = STERNE34F2, read-out: approximate MIC, B. anthracis (second value)

Row | SMILES | MIC (E. coli; [4]) | MIC (P aeruginosa; in vitro) | MIC (S. aureus (MCR)) | Minimal Inhibitory Concentration (MIC), S. aureus (MCR) (S. aureus (MCR)) | MIC [1, 5] | MIC [1, 6] | MIC (M. flavescens) | MIC (C. albicans) | MIC (S. aureus) | IC50 (NAD synthetase) | MIC (A. niger; in vitro) | % CELLULAR NECROSIS (RPRC) [2] | % APOPTOSIS (RPRC) [2] | solubility of test article in methanol:water [3] | % CELLULAR NECROSIS (FIBROBLASTS) (Murine 3T3 cells) | other results
1 | N=C(N)N[C@@H](Cc1ccccc1)C(=O)NCCCCCCCCOc1ccc(OCc2ccccc2)cc1 (as salt: trifluoroacetic acid salt) [Compound 1503] | – | – | – | – | – | – | – | – | – | – | – | – | – | – | – | melting point: 108 to 113 °C
2 | N=C(N)N[C@@H](Cc1ccccc1)C(=O)NCCCCCCCCOc1ccc(OCc2ccccc2)cc1 [Compound 1503] | > 50 µg/mL | > 50 µg/mL | < 0.78 µg/mL | <1.56 µg/mL | 8 µg/mL (≈ 15.5 µM) | 16 µg/mL (≈ 31 µM) | > 50 µg/mL | > 50 µg/mL | < 0.78 µg/mL | 12.7 µM | > 50 µg/mL | – | – | – | – | –
3 | C[N+](C)(C)[C@H](COCCCCCCCCOc1ccc(OCc2ccccc2)cc1)Cc1ccccc1 [Compound 1439] | < 12.5 µg/mL | > 50 µg/mL | < 1.56 µg/mL | – | 4 µg/mL | 4 µg/mL | < 12.5 µg/mL | < 3.13 µg/mL | < 0.78 µg/mL | 22.7 µM | < 25 µg/mL | 62 ± 2% | 10 ± 1% | never went into solution at 50% organic | 73% | MIC (B. subtilis; Bacillus subtilis, read-out: Minimal Inhibitory Concentration (MIC), B. subtilis): < 0.39 µg/mL
4 | C[N+](C)(C)[C@@H](Cc1ccccc1)C(=O)NCCCCCCCCn1ccc2cc(OCc3ccccc3)ccc21.[I-] [Compound 1447] | – | – | – | <1.56; μg/mL and <1.56 μg/mL | – | – | – | – | – | – | – | – | – | – | – | Potency to inhibit growth, E. coli (MIC) (E. coli; in vitro): >50: <50 μg/mL; Potency to inhibit growth, P aeruginosa (MIC) (P aeruginosa; in vitro): >50; >50 μg/mL; Minimal Inhibitory Concentration (MIC), M. flavescens (M. flavescens): <6.25 µg/mL; Potency to inhibit growth, C. albicans (MIC) (C. albicans): < 6.25 µg/mL and < 3.13 µg/mL; Minimal Inhibitory Concentration (MIC), S. aureus (S. aureus): <1.56; μg/mL and <0.78 μg/mL; Minimal Inhibitory Concentration (MIC), B. subtilis (B. subtilis): <1.56 µg/mL and <0.78 µg/mL; IC50 (NAD synthetase; NAD synthetase 2.0 μg/mL, 0.1 mM NaAD, 0.2 mM ATP, pH 8.5): 22.1 µM; Potency to inhibit growth, A. niger (MIC) (A. niger; in vitro): >50; >50 μg/mL
5 | C[N+](C)(C)C(Cc1ccccc1)C(=O)NCCCCCCCCOc1ccc(OCc2ccccc2)cc1 (centres unmarked) [Compound 1364] | – | – | < 0.78 µg/mL | <1.56 µg/mL | – | – | > 50 µg/mL | – | – | 48.4 µM | – | 63 ± 2% | 15 ± 3% | went into solution on day 1, but precipitated on day 2 | 62% | MIC (E. coli; read-out: Potency to inhibit growth, E. coli (MIC), in vitro): < 50 µg/mL; MIC (P aeruginosa): > 50 µg/mL; MIC (A. niger): > 50 µg/mL
